US6809084B1, “Compositions containing polysaccharides from phellinus linteus and methods for treating diabetes mellitus using same” (Korea Research Institute of Bioscience and Biotechnology, priority 2000, dated 2004)

Tested on: ICR mouse
Assay: Streptozotocin-induced diabetes in ICR mice
Type: in vivo
Settings: 60 mg/kg three times i.p., normal ICR mouse 200 mg/dl
Experimental: FIG. 7 illustrates the effect of PL on experimental group with streptozotocin-induced diabetes. Blood glucose values were measured with Accutrend sensor system (Boehringer Mannheim, Germany).
Streptozotocin, which can induce Insulin-dependent diabetes mellitus, destroys selectively pancreatic beta cells, and diabetes mellitus induced :by streptozotocin is similar with diabetes naturally occurring in NOD mice. […] ICR mouse received 60 mg/kg of streptozotocin three times with intraperitoneal injection. Streptozotocin was used in solution of citrate buffer (pH 4.2, 4° C.). The blood glucose level of ICR mouse treated with streptozotocin was 450 mg/dl, whereas that of normal ICR mouse without streptozotocin was 200 mg/dl (FIG. 7).

## CN(N=O)C(=O)N[C@H]1C(O)O[C@H](CO)[C@@H](O)[C@@H]1O (mixture of isomers) [streptozotocin]
  blood glucose level: 450 mg/dL
